Data taken from PMC10819888, “Benzimidazole-Based Derivatives as Apoptotic Antiproliferative Agents: Design, Synthesis, Docking, and Mechanistic Studies” (Molecules, 2024).

Legend:
Test in all cases: NCI-60 one-dose assay
Type in all cases: cell-based
COLO 205 = conditions: Homo sapiens, COLO 205 (Colon Cancer), read-out: Cell Inhibition Percent
Method: (§1) The final compounds were submitted to the National Cancer Institute, Bethesda, USA, for screening in vitro for anti-cancer. […] compounds, 4a–j, 5, and 6, were selected according to the Development Therapeutic Program (DTP) protocol. The selected compounds were evaluated for their in vitro cytotoxic activity against a panel of sixty cancer cell lines (NCI-60 cell line panel) derived from six cell lines panel of leukemia, nine cell lines of lung cancer, six cell lines of CNS cancer, seven cell lines of colon cancer, eight cell lines of melanoma, six cell lines of ovarian cancer, eight cell lines of renal cancer, two cell lines of prostate cancer, and eight cell lines of breast cancer, representing the full nine human systems as leukemia, melanoma, and cancers of the lung, colon, brain, breast, ovary, kidney, and prostate.
(§2) The selected compounds 4a–j, 5, and 6 were tested at a single concentration of 10 µM. The screening results for the selected compounds are illustrated in Table 1.
(§3) The NCI anti-cancer screening methodology has been described in detail elsewhere (http://www.dtp.nci.nih.gov, accessed on 20 February 2021). Following the Drug Evaluation Branch protocol, National Cancer Institute, Bethesda, USA, a primary anti-cancer assay was performed on approximately 60 human tumor cell line panels derived from nine neoplastic diseases.

HS 578T = conditions: Homo sapiens, HS 578T (Breast Cancer), read-out: Cell Inhibition Percent
Method: as §1, §2, §3

SK-OV-3 = conditions: Homo sapiens, SK-OV-3 (ovarian cancer), read-out: Cell Inhibition Percent
Method: as §1, §2, §3

A498 = conditions: Homo sapiens, A498 (Renal Cancer), read-out: Cell Inhibition Percent
Method: as §1, §2, §3

OVCAR-8 = conditions: Homo sapiens, OVCAR-8 (ovarian cancer), read-out: Cell Inhibition Percent
Method: as §1, §2, §3

UO-31 = conditions: Homo sapiens, UO-31 (Renal Cancer), read-out: Cell Inhibition Percent
Method: as §1, §2, §3

OVCAR-3 = conditions: Homo sapiens, OVCAR-3 (ovarian cancer), read-out: Cell Inhibition Percent
Method: as §1, §2, §3

UACC-62 = conditions: Homo sapiens, UACC-62 (Melanoma), read-out: Cell Inhibition Percent
Method: as §1, §2, §3

CCRF-CEM = conditions: Homo sapiens, CCRF-CEM (Leukemia), read-out: Cell Inhibition Percent
Method: as §1, §2, §3

A549/ATCC = conditions: Homo sapiens, A549/ATCC (Non-Small Cell Lung Cancer), read-out: Cell Inhibition Percent
Method: as §1, §2, §3

ACHN = conditions: Homo sapiens, ACHN (Renal Cancer), read-out: Cell Inhibition Percent
Method: as §1, §2, §3

MDA-MB-468 = conditions: Homo sapiens, MDA-MB-468 (Breast Cancer), read-out: Cell Inhibition Percent
Method: as §1, §2, §3

CAKI-1 = conditions: Homo sapiens, CAKI-1 (Renal Cancer), read-out: Cell Inhibition Percent
Method: as §1, §2, §3

KM12 = conditions: Homo sapiens, KM12 (Colon Cancer), read-out: Cell Inhibition Percent
Method: as §1, §2, §3

HT29 = conditions: Homo sapiens, HT-29, HT29 (Colon Cancer), read-out: Cell Inhibition Percent
Method: as §1, §2, §3

BT-549 = conditions: Homo sapiens, BT-549 (Breast Cancer), read-out: Cell Inhibition Percent
Method: as §1, §2, §3

SN12C = conditions: Homo sapiens, SN12C (Renal Cancer), read-out: Cell Inhibition Percent
Method: as §1, §2, §3

OVCAR-4 = conditions: Homo sapiens, OVCAR-4 (ovarian cancer), read-out: Cell Inhibition Percent
Method: as §1, §2, §3

LOX IMVI = conditions: Homo sapiens, LOX IMVI (Melanoma), read-out: Cell Inhibition Percent
Method: as §1, §2, §3

TK-10 = conditions: Homo sapiens, TK-10 (Renal Cancer), read-out: Cell Inhibition Percent
Method: as §1, §2, §3

NCI-H226 = conditions: Homo sapiens, NCI-H226 (Non-Small Cell Lung Cancer), read-out: Cell Inhibition Percent
Method: as §1, §2, §3

HCC-2998 = conditions: Homo sapiens, HCC-2998 (Colon Cancer), read-out: Cell Inhibition Percent
Method: as §1, §2, §3

HCT-15 = conditions: Homo sapiens, HCT-15 (Colon Cancer), read-out: Cell Inhibition Percent
Method: as §1, §2, §3

SNB-75 = conditions: Homo sapiens, SNB-75 (CNS cancer), read-out: Cell Inhibition Percent
Method: as §1, §2, §3

SNB-19 = conditions: Homo sapiens, SNB-19 (CNS cancer), read-out: Cell Inhibition Percent
Method: as §1, §2, §3

SK-MEL-5 = conditions: Homo sapiens, SK-MEL-5 (Melanoma), read-out: Cell Inhibition Percent
Method: as §1, §2, §3

SF-295 = conditions: Homo sapiens, SF-295 (CNS cancer), read-out: Cell Inhibition Percent
Method: as §1, §2, §3

T-47D = conditions: Homo sapiens, T47D, T-47D (Breast Cancer), read-out: Cell Inhibition Percent
Method: as §1, §2, §3

NCI-H23 = conditions: Homo sapiens, NCI-H23 (Non-Small Cell Lung Cancer), read-out: Cell Inhibition Percent
Method: as §1, §2, §3

K-562 = conditions: Homo sapiens, K562, K-562 (Leukemia), read-out: Cell Inhibition Percent
Method: as §1, §2, §3

NCI-H322M = conditions: Homo sapiens, NCI-H322M (Non-Small Cell Lung Cancer), read-out: Cell Inhibition Percent
Method: as §1, §2, §3

| Structure (SMILES) | inhibition at 10 µM (COLO 205) | inhibition at 10 µM (HS 578T) | inhibition at 10 µM (SK-OV-3) | inhibition at 10 µM (A498) | inhibition at 10 µM (OVCAR-8) | inhibition at 10 µM (UO-31) | inhibition at 10 µM (OVCAR-3) | inhibition at 10 µM (UACC-62) | inhibition at 10 µM (CCRF-CEM) | inhibition at 10 µM (A549/ATCC) | inhibition at 10 µM (ACHN) | inhibition at 10 µM (MDA-MB-468) | inhibition at 10 µM (CAKI-1) | inhibition at 10 µM (KM12) | inhibition at 10 µM (HT29) | inhibition at 10 µM (BT-549) | inhibition at 10 µM (SN12C) | inhibition at 10 µM (OVCAR-4) | inhibition at 10 µM (LOX IMVI) | inhibition at 10 µM (TK-10) | other results |
| --- | --- | --- | --- | --- | --- | --- | --- | --- | --- | --- | --- | --- | --- | --- | --- | --- | --- | --- | --- | --- | --- |
| CN(C)c1ccc(C=NNC(=O)c2ccc3[nH]c(-c4ccc(Cl)cc4)nc3c2)cc1 [Compound 4b, N′-(4-(Dimethylamino)benzylidene)-2-(4-chlorophenyl)-1H-benzimidazole-5-carbohydrazide] | 0% | 6.32% | 0% | 12.9% | 5.81% | 13.3% | 0% | 1.06% | 6.5% | 0% | 1.36% | 0% | 4.4% | 2.41% | 2.26% | 0% | 1.47% | 0% | 3.7% | 0% | inhibition at 10 µM (NCI-H226): 4.67%; inhibition at 10 µM (HCC-2998): 6.31%; inhibition at 10 µM (HCT-15): 0%; inhibition at 10 µM (SNB-75): 0.61%; inhibition at 10 µM (SNB-19): 0%; inhibition at 10 µM (SK-MEL-5): 5.02%; inhibition at 10 µM (SF-295): 1.06%; inhibition at 10 µM (T-47D): 14.1%; inhibition at 10 µM (NCI-H23): 1.51%; inhibition at 10 µM (K-562): 5.96%; inhibition at 10 µM (NCI-H322M): 0.24% |
| O=C(NN=Cc1ccc(Cl)cc1Cl)c1ccc2[nH]c(-c3ccc(Cl)cc3)nc2c1 [Compound 4f, N′-(2,4-Dichlorobenzylidene)-2-(4-chlorophenyl)-1H-benzimidazole-5-carbohydrazide] | 0% | 10.4% | 7.23% | 36.7% | 17.1% | 27.8% | 0% | 0% | 48.1% | 4.7% | 9.01% | 0% | 9.61% | 1.75% | 2.18% | 0% | 1.23% | 0% | 18.9% | 0% | inhibition at 10 µM (NCI-H226): 18.8%; inhibition at 10 µM (HCC-2998): 3.25%; inhibition at 10 µM (HCT-15): 0%; inhibition at 10 µM (SNB-75): 12.4%; inhibition at 10 µM (SNB-19): 7.76%; inhibition at 10 µM (SK-MEL-5): 2.92%; inhibition at 10 µM (SF-295): 1.19%; inhibition at 10 µM (T-47D): 12.3%; inhibition at 10 µM (NCI-H23): 4.26%; inhibition at 10 µM (K-562): 53.7%; inhibition at 10 µM (NCI-H322M): 0% |
| COc1cc(/C=N/NC(=O)c2ccc3[nH]c(-c4ccc(Cl)cc4)nc3c2)cc(OC)c1OC [Compound 4h, N′-(3,4,5-Trimethoxybenzylidene)-2-(4-chlorophenyl)-1H-benzimidazole-5 carbohydrazide] | 54.3% | 51.7% | 12.2% | 102% | 39.5% | 11.7% | 38.4% | 71.3% | 63.4% | 14.2% | 32.3% | 0% | 24% | 38.2% | 60.1% | 29.3% | 31.5% | 0% | 49.4% | 22.6% | inhibition at 10 µM (NCI-H226): 24%; inhibition at 10 µM (HCC-2998): 20%; inhibition at 10 µM (HCT-15): 3.98%; inhibition at 10 µM (SNB-75): 13.4%; inhibition at 10 µM (SNB-19): 29%; inhibition at 10 µM (SK-MEL-5): 58.1%; inhibition at 10 µM (SF-295): 56%; inhibition at 10 µM (T-47D): 84.1%; inhibition at 10 µM (NCI-H23): 46.3%; inhibition at 10 µM (K-562): 67.3%; inhibition at 10 µM (NCI-H322M): 12.4% |
| O=C(NN=Cc1ccc([N+](=O)[O-])cc1)c1ccc2[nH]c(-c3ccc(Cl)cc3)nc2c1 [Compound 4c, N′-(4-Nitrobenzylidene)-2-(4-chlorophenyl)-1H-benzimidazole-5-carbohydrazide] | 97.7% | 63.2% | 39.5% | 100% | 78.4% | 57.4% | 88.7% | 56.4% | 90.1% | 65.5% | 67.7% | 139% | 57.2% | 87% | 91.8% | 86% | 80.3% | 77% | 101% | 10.2% | inhibition at 10 µM (NCI-H226): 45.2%; inhibition at 10 µM (HCC-2998): 85.1%; inhibition at 10 µM (HCT-15): 70.1%; inhibition at 10 µM (SNB-75): 30.7%; inhibition at 10 µM (SNB-19): 48%; inhibition at 10 µM (SK-MEL-5): 97.4%; inhibition at 10 µM (SF-295): 78.3%; inhibition at 10 µM (T-47D): 89.5%; inhibition at 10 µM (NCI-H23): 83.8%; inhibition at 10 µM (K-562): 90.3%; inhibition at 10 µM (NCI-H322M): 29.9% |
| CCNC(=S)NNC(=O)c1ccc2[nH]c(-c3ccc(Cl)cc3)nc2c1 [Compound 5] | 0% | 9.75% | 0.37% | 57.7% | 6.74% | 6.39% | 0% | 1.88% | 86.9% | 6.17% | 6.31% | 0% | 17.1% | 7.97% | 2.33% | 0% | 10.1% | 5.13% | 12.4% | 0% | inhibition at 10 µM (NCI-H226): 9.79%; inhibition at 10 µM (HCC-2998): 5.54%; inhibition at 10 µM (HCT-15): 5.9%; inhibition at 10 µM (SNB-75): 7.77%; inhibition at 10 µM (SNB-19): 2.37%; inhibition at 10 µM (SK-MEL-5): 9.57%; inhibition at 10 µM (T-47D): 18.4%; inhibition at 10 µM (NCI-H23): 5.79%; inhibition at 10 µM (K-562): 88.4%; inhibition at 10 µM (NCI-H322M): 3.36% |
